ChEMBL document CHEMBL4229418, “Design, synthesis and pharmacology of aortic-selective acyl-CoA: Cholesterol O-acyltransferase (ACAT/SOAT) inhibitors” (Bioorg Med Chem, 2018)
In brackets after ≈: the same amount, converted by molar mass.

Assays:
[1] = test system: Hamster; experiment: Antiatherosclerotic activity in Bio F1B hamster model of diet-induced atherosclerosis assessed as intestinal free cholesterol level at 10 mg/kg/day added to chow pellets (reference value: 3.41 mg/dl); type: functional, Cricetinae
[2] = test system: Hamster; experiment: Antiatherosclerotic activity in Bio F1B hamster model of diet-induced atherosclerosis assessed as plasma cholesterol ester level at 10 mg/kg/day added to chow pellets (reference value: 1379.3 mg/dl); type: functional, Cricetinae
[3] = Tmax in non-fasted Beagle dog at 30 mg/kg, po by LC-MS/MS analysis; type: ADME, organism-based, Canis lupus familiaris; conditions: in vivo
[4] = test system: Hamster; experiment: Toxicity in Bio F1B hamster model of diet-induced atherosclerosis assessed as plasma total cholesterol level at 30 mg/kg/day added to chow pellets (reference value: 2160.1 mg/dl); type: organism-based; conditions: cricetinae, in vivo
[5] = test system: Hamster; experiment: Antiatherosclerotic activity in Bio F1B hamster model of diet-induced atherosclerosis assessed as plasma free cholesterol level at 3 mg/kg/day added to chow pellets (reference value: 780.8 mg/dl); type: functional, Cricetinae
[6] = test system: Hamster; experiment: Effect on lipid composition in Bio F1B hamster model of diet-induced atherosclerosis assessed as intestine total cholesterol level at 30 mg/kg/day added to chow pellets (reference value: 4.51 mg/dl); type: functional, Cricetinae
[7] = Tmax in fasted Beagle dog at 30 mg/kg, po by LC-MS/MS analysis; type: ADME, organism-based, Canis lupus familiaris; conditions: in vivo
[8] = test system: Hamster; experiment: Antiatherosclerotic activity in Bio F1B hamster model of diet-induced atherosclerosis assessed as intestinal cholesterol ester level at 10 mg/kg/day added to chow pellets (reference value: 1.09 mg/dl); type: functional, Cricetinae
[9] = test system: Hamster; experiment: Antiatherosclerotic activity in Bio F1B hamster model of diet-induced atherosclerosis assessed as liver free cholesterol level at 10 mg/kg/day added to chow pellets (reference value: 7.94 mg/dl); type: functional, Cricetinae
[10] = test system: Hamster; experiment: Antiatherosclerotic activity in Bio F1B hamster model of diet-induced atherosclerosis assessed as liver cholesterol ester level at 3 mg/kg/day added to chow pellets (reference value: 24.04 mg/dl); type: functional, Cricetinae
[11] = AUC (0 to 8 hrs) in fasted Beagle dog at 30 mg/kg, po by LC-MS/MS analysis; type: ADME, organism-based, Canis lupus familiaris; design: dose 30 mg/kg, time < 8 hr, route oral; conditions: in vivo
[12] = test system: Hamster; experiment: Effect on lipid composition in Bio F1B hamster model of diet-induced atherosclerosis assessed as intestine total cholesterol level at 1 mg/kg/day added to chow pellets (reference value: 4.51 mg/dl); type: functional, Cricetinae
[13] = test system: Hamster; experiment: Effect on lipid composition in Bio F1B hamster model of diet-induced atherosclerosis assessed as intestine total cholesterol level at 3 mg/kg/day added to chow pellets (reference value: 4.51 mg/dl); type: functional, Cricetinae
[14] = AUC (0 to 8 hrs) in non-fasted Beagle dog at 30 mg/kg, po by LC-MS/MS analysis; type: ADME, organism-based, Canis lupus familiaris; design: time < 8 hr, dose 30 mg/kg, route oral; conditions: in vivo
[15] = test system: Hamster; experiment: Toxicity in Bio F1B hamster model of diet-induced atherosclerosis assessed as plasma total cholesterol level at 10 mg/kg/day added to chow pellets (reference value: 2160.1 mg/dl); type: organism-based; conditions: cricetinae, in vivo
[16] = test system: Hamster; experiment: Antiatherosclerotic activity in Bio F1B hamster model of diet-induced atherosclerosis assessed as adrenal cholesterol ester level at 10 mg/kg/day added to chow pellets (reference value: 5.88 mg/dl); type: functional, Cricetinae
[17] = test system: Hamster; experiment: Toxicity in Bio F1B hamster model of diet-induced atherosclerosis assessed as plasma total cholesterol level at 1 mg/kg/day added to chow pellets (reference value: 2160.1 mg/dl); type: organism-based; conditions: cricetinae, in vivo
[18] = test system: Hamster; experiment: Toxicity in Bio F1B hamster model of diet-induced atherosclerosis assessed as plasma total cholesterol level at 3 mg/kg/day added to chow pellets (reference value: 2160.1 mg/dl); type: organism-based; conditions: cricetinae, in vivo
[19] = test system: Hamster; experiment: Antiatherosclerotic activity in Bio F1B hamster model of diet-induced atherosclerosis assessed as intestinal free cholesterol level at 1 mg/kg/day added to chow pellets (reference value: 3.41 mg/dl); type: functional, Cricetinae
[20] = test system: Hamster; experiment: Effect on lipid composition in Bio F1B hamster model of diet-induced atherosclerosis assessed as adrenal total cholesterol level at 10 mg/kg/day added to chow pellets (reference value: 10.54 mg/dl); type: functional, Cricetinae
[21] = test system: Hamster; experiment: Toxicity in Bio F1B hamster model of diet-induced atherosclerosis assessed as adrenal free cholesterol level at 1 mg/kg/day added to chow pellets (reference value: 4.65 mg/dl); type: organism-based; conditions: cricetinae, in vivo
[22] = test system: Hamster; experiment: Effect on lipid composition in Bio F1B hamster model of diet-induced atherosclerosis assessed as intestine total cholesterol level at 10 mg/kg/day added to chow pellets (reference value: 4.51 mg/dl); type: functional, Cricetinae
[23] = test system: Hamster; experiment: Antiatherosclerotic activity in Bio F1B hamster model of diet-induced atherosclerosis assessed as intestinal cholesterol ester level at 1 mg/kg/day added to chow pellets (reference value: 1.09 mg/dl); type: functional, Cricetinae
[24] = test system: Hamster; experiment: Antiatherosclerotic activity in Bio F1B hamster model of diet-induced atherosclerosis assessed as plasma free cholesterol level at 10 mg/kg/day added to chow pellets (reference value: 780.8 mg/dl); type: functional, Cricetinae
[25] = test system: Hamster; experiment: Effect on lipid composition in Bio F1B hamster model of diet-induced atherosclerosis assessed as adrenal total cholesterol level at 30 mg/kg/day added to chow pellets (reference value: 10.54 mg/dl); type: functional, Cricetinae
[26] = test system: Hamster; experiment: Antiatherosclerotic activity in Bio F1B hamster model of diet-induced atherosclerosis assessed as liver cholesterol ester level at 1 mg/kg/day added to chow pellets (reference value: 24.04 mg/dl); type: functional, Cricetinae
[27] = Solubility of the compound in pH 1.2 solution; type: physicochemical; conditions: buffer
[28] = Toxicity in rat measured over 2 weeks; type: organism-based; conditions: in vivo
[29] = test system: Canis familiaris; experiment: Toxicity in dog assessed as induction of necrosis in adrenal reticular zona cells at 100 mg/kg measured over 2 weeks; type: organism-based, Canis lupus familiaris; conditions: in vivo, 336 h
[30] = test system: Hamster; experiment: Toxicity in Bio F1B hamster model of diet-induced atherosclerosis assessed as adrenal free cholesterol level at 30 mg/kg/day added to chow pellets (reference value: 4.65 mg/dl); type: organism-based; conditions: cricetinae, in vivo

Work on CC(C)c1cccc(C(C)C)c1NC(=O)CCCCCCCCSc1nc2ccccc2o1 yielded an Activity [1] of 3.82 mg/dL, an Activity [2] of 799.7 mg/dL and a Tmax [3] of 3 h. It also gave an Activity [4] of 476.3 mg/dL, an Activity [5] of 801.5 mg/dL and an Activity [6] of 4.81 mg/dL. The Tmax [7] was 1 h, the Activity [8] was 0.31 mg/dL and the Activity [9] was 3.87 mg/dL. For the same compound, the Activity [10] was 17.67 mg/dL, the AUC(0-t) at 8 h [11] was 14 ng·h/mL and the Activity [12] was 4.4 mg/dL. It also gave an Activity [13] of 4.12 mg/dL, an AUC(0-t) at 8 h [14] of 2960 ng·h/mL and an Activity [15] of 1291.7 mg/dL. The Activity [16] was 3.5 mg/dL, the Activity [17] was 2340.8 mg/dL and the Activity [18] was 2241 mg/dL. The Activity [19] was 3.43 mg/dL, the Activity [20] was 7 mg/dL and the Activity [21] was 4.41 mg/dL. For the same compound, the Activity [22] was 4.07 mg/dL, the Activity [23] was 0.98 mg/dL and the Activity [24] was 491.9 mg/dL. It also gave an Activity [25] of 3.47 mg/dL, an Activity [26] of 22.81 mg/dL and a solubility [27] of 0.03 µg/mL (≈ 0.0643 µM). For the same compound, the NOAEL at 336 h [28] was 30 mg/kg, the Activity [29] was “Toxic” and the Activity [30] was 2.4 mg/dL.
